Consider 21 compounds from patent US12122779B2, “Pyrrolo-pyridazine derivatives as muscarinic M1 receptor positive allosteric modulators” (SUVEN LIFE SCIENCES LIMITED, priority 2018, dated 2024).

The target in series [1] is T1, recombinant human Muscarinic M1 receptor (Homo sapiens, UniProt P11229).
T1 sequence (P11229 1-460): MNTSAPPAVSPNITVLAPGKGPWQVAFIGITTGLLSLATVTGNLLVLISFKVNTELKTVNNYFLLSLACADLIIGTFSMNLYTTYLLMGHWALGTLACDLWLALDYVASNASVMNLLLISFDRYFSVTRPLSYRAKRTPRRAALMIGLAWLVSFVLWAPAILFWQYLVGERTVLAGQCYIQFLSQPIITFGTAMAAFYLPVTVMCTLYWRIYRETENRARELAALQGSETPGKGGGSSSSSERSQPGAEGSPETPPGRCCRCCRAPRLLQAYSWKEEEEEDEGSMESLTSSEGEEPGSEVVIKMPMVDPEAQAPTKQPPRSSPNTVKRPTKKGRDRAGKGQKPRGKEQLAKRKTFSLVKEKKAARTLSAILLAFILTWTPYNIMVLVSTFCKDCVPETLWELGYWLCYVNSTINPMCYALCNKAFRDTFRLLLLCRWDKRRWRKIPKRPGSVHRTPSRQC
The series is described as follows: Allosteric potency EC50 for muscarinic M1 receptor, CHO pCRE-Luc reporter cell-based assay with EC20 of acetylcholine. To be noted: CHO cells, luciferase activity, in presence of EC20 of acetylcholine, 4 hours. The method, then: Determination of Allosteric Potency EC50 Values for Muscarinic M1 Receptor
A stable CHO cell line expressing recombinant human Muscarinic M1 receptor and pCRE-Luc reporter system was used for cell-based assay. The assay offers a non-radioactive based approach to determine binding of a compound to GPCRs. In this specific assay, the level of intracellular cyclic AMP which is modulated by activation or inhibition of the receptor is measured. The recombinant cells harbor luciferase reporter gene under the control of cyclic AMP response element.
The above cells were grown in 96 well clear bottom white plates in Hams F12 medium containing 10% fetal bovine serum (FBS). Prior to the addition of compounds or standard agonist, cells were serum starved overnight. Increasing concentrations of test compounds were added along with EC20 of acetylcholine in OptiMEM medium to the cells. The incubation was continued at 37° C. in CO2 incubator for 4 hours. Medium was removed and cells were washed with phosphate buffered saline. The cells were lysed and luciferase activity was measured in a Luminometer. Luminescence units were plotted against the compound concentrations using Graphpad software.

Series [2] in a line: Rodent pharmacokinetic study. The series is classed as in vivo, Male Wistar rats. To be noted: male, Wistar, plasma, rat; for bioavailability: oral 3 mg/kg vs intravenous 1 mg/kg, read-out: F (%) Bioavailability. The method, then: Rodent Pharmacokinetic Study
Male Wistar rats (260±50 grams) were used as experimental animals. Animals were housed individually in polypropylene cage. Two days prior to study, male Wistar rats were anesthetized with isoflurane for surgical placement of jugular vein catheter. Rats were randomly divided for oral (3 mg/kg) and intravenous (1 mg/kg) dosing (n=3/group) and fasted overnight before oral dosing (p.o.). However, rats allocated to intravenous dosing food and water was provided ad libitum.
At pre-determined point, blood was collected through jugular vein and replenished with an equivalent volume of normal saline. Collected blood was transferred into a labeled eppendorf tube containing 10 μL of heparin as an anticoagulant. Typically blood samples were collected at following time points: 0.08, 0.25, 0.5, 1, 2, 4, 6, 8, and 24 h post dose. Blood was centrifuged at 4000 rpm for 10 minutes. Plasma was separated and stored frozen at −80° C. until analysis. The concentrations of the test compounds were quantified in plasma by qualified LC-MS/MS method using suitable extraction technique. The test compounds were quantified in the calibration range around 1-1000 ng/mL in plasma. Study samples were analyzed using calibration samples in the batch and quality control samples spread across the batch.
Pharmacokinetic parameters Cmax, AUCt, T1/2, Clearance and Bioavailability (F) were calculated by non-compartmental model using standard non-compartmental model by using Phoenix WinNonlin 6.0.4 version Software package.

Each structure is given as a SMILES string.

For orientation: EC50 means the concentration at which the effect is half-maximal. With `O=C(N[C@H]1CCCC[C@@H]1O)c1cc(Cc2ccc(-c3ccc(F)cc3)cc2)c2cccn2n1` (stereo in doubt) [Example 23, N-[(1S,2S)-2-Hydroxycyclohexyl] 4-[4-(4-fluorophenyl)-benzyl]-pyrrolo[1,2-b]pyridazine-2-carboxamide], the EC50 in series [1] was determined as 1020 nM.

By AUC(0-t) is commonly meant exposure summed from dosing to a finite time, without extrapolation to infinity. As usually defined, the clearance is the rate of elimination divided by the concentration. Usually half-life stands for how long it takes for the measured level to halve. Read a low half-life as fast loss. The bioavailability is the share of a dose that reaches the circulation, judged against a reference dose that is usually intravenous. The Cmax is the maximum level reached in the sampled fluid or tissue. In series [2] (intravenous (bolus), 1 mg/kg), `O=C(N[C@H]1CCCC[C@@H]1O)c1cc(Cc2ccc(-c3cccnc3)cc2)c2cccn2n1` (stereo in doubt) [Example 26, N-[(1S,2S)-2-Hydroxycyclohexyl] 4-[4-(3-pyridyl)-benzyl]-pyrrolo[1,2-b]pyridazine-2-carboxamide] had an area under the curve AUC(0-t) of 1130 ± 61 ng·h/mL, a clearance of 14.4 ± 1 mL/min/kg and a half-life of 108 ± 12 min. Also, the bioavailability in series [2] amounted to 71 ± 4%. In series [2] (oral (gavage), 3 mg/kg), this compound gave an exposure AUC(0-t) of 2390 ± 129 ng·h/mL, a maximum concentration (Cmax) of 762 ± 80 ng/mL and a half-life of 106 ± 4.2 min. Turning to `O=C(N[C@H]1CCCC[C@@H]1O)c1cc(Cc2ccc(-c3ccncc3)cc2)c2cccn2n1` (stereo in doubt) [Example 27, N-[(1S,2S)-2-Hydroxycyclohexyl] 4-[4-(4-pyridyl)-benzyl]-pyrrolo[1,2-b]pyridazine-2-carboxamide], in series [2] (intravenous (bolus), 1 mg/kg), the AUC(0-t) was determined as 687 ± 50 ng·h/mL, the clearance amounted to 24 ± 1.8 mL/min/kg and the half-life is 66 ± 18 min. Moreover, in series [2], the bioavailability was determined as 49 ± 16%. In series [2] (oral (gavage), 3 mg/kg), this compound gave an AUC(0-t) of 1000 ± 320 ng·h/mL, a Cmax of 397 ± 162 ng/mL and a half-life of 63.6 ± 4.8 min. Turning to `O=C(N[C@H]1CCCC[C@@H]1O)c1cc(Cc2ccc(Cl)cc2)c2cccn2n1` [Example 2, N-[(1S,2S)-2-Hydroxycyclohexyl]-4-(4-chlorobenzyl)-pyrrolo[1,2-b]pyridazine-2-carboxamide], in series [1], the EC50 was 555 nM.

Turning to `CC(C)(O)CNC(=O)c1cc(Cc2ccc(Cl)cc2)c2cccn2n1` [Example 3, N-[2-Hydroxy-2-methyl-propyl]-4-(4-chlorobenzyl)-pyrrolo[1,2-b]pyridazine-2-carboxamide], the EC50 in series [1] came to 941 nM. Turning to `O=C(N[C@H]1CCCC[C@@H]1O)c1cc(Cc2ccc(Br)cc2)c2cccn2n1` [Example 5, N-[(1S,2S)-2-Hydroxycyclohexyl]-4-(4-bromobenzyl)-pyrrolo[1,2-b]pyridazine-2-carboxamide], the EC50 in series [1] was 344 nM. As to `O=C(NCC1(O)CCOCC1)c1cc(Cc2ccc(Cl)cc2)c2cccn2n1` [Example 6, N-[(4-Hydroxy-tetrahydro-pyran-4-ylmethyl)]-4-(4-chlorobenzyl)-pyrrolo[1,2-b]pyridazine-2-carboxamide], the half-maximal effective concentration (EC50) in series [1] is 3990 nM.

As to `O=C(N[C@H]1CCCC[C@@H]1O)c1cc(Cc2cccc(F)c2)c2cccn2n1` [Example 7, N-[(1S,2S)-2-Hydroxycyclohexyl]-4-(3-fluorobenzyl)-pyrrolo[1,2-b]pyridazine-2-carboxamide], the EC50 in series [1] amounted to 847 nM. The same measure, in the same setting: then `O=C(NCCO)c1cc(Cc2ccc(Br)cc2)c2cccn2n1` [Example 12, N-[2-hydroxyethyl]-4-(4-bromobenzyl)-pyrrolo[1,2-b]pyridazine-2-carboxamide], with 1550 nM; and `CCC(CO)NC(=O)c1cc(Cc2ccc(Br)cc2)c2cccn2n1` (stereo not drawn) [Example 16, N-[1-Hydroxymethyl-propyl]-4-(4-bromobenzyl)-pyrrolo[1,2-b]pyridazine-2-carboxamide], with 1000 nM; and `CC(C)C(CO)NC(=O)c1cc(Cc2ccc(Br)cc2)c2cccn2n1` (stereo not drawn) [Example 17, N-[1-Hydroxymethyl-2-methylpropyl]-4-(4-bromobenzyl)-pyrrolo[1,2-b]pyridazine-2-carboxamide], with 1900 nM.

On to `Cn1cc(-c2ccc(Cc3cc(C(=O)NC4CCOCC4)nn4cccc34)cc2)cn1` [Example 21, N-[Tetrahydropyran-4-yl] 4-[4-(1-methyl-1H-pyrazol-4-yl)-benzyl]-pyrrolo[1,2-b]pyridazine-2-carboxamide], for which, in series [2] (intravenous (bolus), 1 mg/kg), the AUC(0-t) worked out at 8200 ± 1560 ng·h/mL, the clearance was 1.9 ± 0.5 mL/min/kg and the half-life was 486 ± 84 min. The bioavailability in series [2] is 58 ± 2%. In series [2] (oral (gavage), 3 mg/kg), this compound had an AUC(0-t) of 14200 ± 493 ng·h/mL, a Cmax of 1060 ± 257 ng/mL and a half-life of 522 ± 180 min. Regarding `Cn1cc(-c2ccc(Cc3cc(C(=O)NCC4(O)CCOCC4)nn4cccc34)cc2)cn1` [Example 22, N-[4-Hydroxy-tetrahydro-pyran-4-ylmethyl] 4-[4-(1-methyl-1H-pyrazol-4-yl)-benzyl]-pyrrolo[1,2-b]pyridazine-2-carboxamide], the EC50 in series [1] is 1660 nM. For the compound `O=C(NC1CCOCC1)c1cc(Cc2ccc(-c3cccnc3)cc2)c2cccn2n1` [Example 28, N-[Tetrahydropyran-4-yl] 4-[4-(3-pyridyl)-benzyl]-pyrrolo[1,2-b]pyridazine-2-carboxamide], the EC50 in series [1] was 586 nM. For the compound `Cn1cc(-c2ccc(Cc3cc(C(=O)NC4CCOC4)nn4cccc34)cc2)cn1` (stereo not drawn) [Example 32, N-[Tetrahydrofuran-3-yl] 4-[4-(1-methyl-1H-pyrazol-4-yl)-benzyl]-pyrrolo[1,2-b]pyridazine-2-carboxamide], the EC50 in series [1] came out at 2020 nM. With `O=C(NC1CCOC1)c1cc(Cc2ccc(-c3ccncc3)cc2)c2cccn2n1` (stereo not drawn) [Example 33, N-[Tetrahydrofuran-3-yl] 4-[4-(4-pyridyl)-benzyl]-pyrrolo[1,2-b]pyridazine-2-carboxamide], the EC50 in series [1] turned out to be 2110 nM.

Consider `O=C(NC1CCOC1)c1cc(Cc2ccc(-c3cccnc3)cc2)c2cccn2n1` (stereo not drawn) [Example 34, N-[Tetrahydrofuran-3-yl] 4-[4-(3-pyridyl)-benzyl]-pyrrolo[1,2-b]pyridazine-2-carboxamide], for which the EC50 in series [1] was determined as 2850 nM. As to `Cn1cc(-c2ccc(Cc3cc(C(=O)NCC4CCOC4)nn4cccc34)cc2)cn1` (stereo not drawn) [Example 35, N-[Tetrahydrofuran-3-ylmethyl] 4-[4-(1-methyl-1H-pyrazol-4-yl)-benzyl]-pyrrolo[1,2-b]pyridazine-2-carboxamide], the 50% effective concentration (EC50) in series [1] is 343 nM. Consider `CCC(CO)NC(=O)c1cc(Cc2ccc(-c3cnn(C)c3)cc2)c2cccn2n1` (stereo not drawn) [Example 36, N-[l-Hydroxymethyl-propyl] 4-[4-(1-methyl-1H-pyrazol-4-yl)-benzyl]-pyrrolo[1,2-b]pyridazine-2-carboxamide], for which, in series [1], the EC50 came to 1150 nM. For `CC(C)C(CO)NC(=O)c1cc(Cc2ccc(-c3cnn(C)c3)cc2)c2cccn2n1` (stereo not drawn) [Example 37, N-[1-Hydroxymethyl-2-methylpropyl] 4-[4-(1-methyl-1H-pyrazol-4-yl)-benzyl]-pyrrolo[1,2-b]pyridazine-2-carboxamide], in series [1], the EC50 was 411 nM. Regarding `O=C(N[C@H]1CCCC[C@@H]1O)c1cc(Cc2ccc(Cc3ccnc(F)c3)cc2)c2cccn2n1` [Example 50, N-[(1S,2S)-2-Hydroxycyclohexyl]-4-[4-(2-fluoropyridin-4-yl-methyl)-benzyl]-pyrrolo[1,2-b]pyridazine-2-carboxamide], the EC50 in series [1] was determined as 518 nM.
